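Test compounds were applied to cells in 96-well plates for 48 hours at 5 doses. GI50: concentration for 50% inhibition of growth. TGI is the concentration that stops growth completely.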
Legend:
Experiment in all cases: growth of human tumour cells (NCI), 48 h
786-0 renal = test system: 786-0 renal
A498 renal = test system: A498 renal
A549 NSCLC = test system: A549 NSCLC
ACHN renal = test system: ACHN renal
BT-549 breast = test system: BT-549 breast
CAKI-1 renal = test system: CAKI-1 renal
CCRF-CEM leukemia = test system: CCRF-CEM leukemia
COLO 205 colon = test system: COLO 205 colon
DU-145 prostate = test system: DU-145 prostate
EKVX NSCLC = test system: EKVX NSCLC
HCC-2998 colon = test system: HCC-2998 colon
HCT-116 colon = test system: HCT-116 colon
HCT-15 colon = test system: HCT-15 colon
HL-60(TB) leukemia = test system: HL-60(TB) leukemia
HOP-62 NSCLC = test system: HOP-62 NSCLC
HOP-92 NSCLC = test system: HOP-92 NSCLC
HS 578T breast = test system: HS 578T breast
HT29 colon = test system: HT29 colon
IGROV1 ovarian = test system: IGROV1 ovarian
K-562 leukemia = test system: K-562 leukemia
KM12 colon = test system: KM12 colon
LOX IMVI melanoma = test system: LOX IMVI melanoma
M14 melanoma = test system: M14 melanoma
MALME-3M melanoma = test system: MALME-3M melanoma
MCF7 breast = test system: MCF7 breast
MDA-MB-231 breast = test system: MDA-MB-231 breast
MDA-MB-435 = test system: MDA-MB-435
MOLT-4 leukemia = test system: MOLT-4 leukemia
NCI-H226 lung = test system: NCI-H226 lung
NCI-H23 lung = test system: NCI-H23 lung
NCI-H460 lung = test system: NCI-H460 lung
NCI-H522 lung = test system: NCI-H522 lung
NCI/ADR-RES ovarian = test system: NCI/ADR-RES ovarian
OVCAR-3 ovarian = test system: OVCAR-3 ovarian
OVCAR-4 ovarian = test system: OVCAR-4 ovarian
OVCAR-5 ovarian = test system: OVCAR-5 ovarian
OVCAR-8 ovarian = test system: OVCAR-8 ovarian
PC-3 prostate = test system: PC-3 prostate
RPMI-8226 leukemia = test system: RPMI-8226 leukemia
RXF 393 renal = test system: RXF 393 renal
SF-268 CNS = test system: SF-268 CNS
SF-295 CNS = test system: SF-295 CNS
SF-539 CNS = test system: SF-539 CNS
SK-MEL-2 melanoma = test system: SK-MEL-2 melanoma
SK-MEL-28 melanoma = test system: SK-MEL-28 melanoma
SK-MEL-5 melanoma = test system: SK-MEL-5 melanoma
SK-OV-3 ovarian = test system: SK-OV-3 ovarian
SN12C renal = test system: SN12C renal
SNB-19 CNS = test system: SNB-19 CNS
SNB-75 CNS = test system: SNB-75 CNS
SR leukemia = test system: SR leukemia
SW-620 colon = test system: SW-620 colon
T-47D breast = test system: T-47D breast
TK-10 renal = test system: TK-10 renal
U251 CNS = test system: U251 CNS
UACC-257 melanoma = test system: UACC-257 melanoma
UACC-62 melanoma = test system: UACC-62 melanoma
UO-31 renal = test system: UO-31 renal

S=c1ssnc1-c1ccccn1
GI50 (786-0 renal): 2.54 µM
TGI (786-0 renal): > 25.4 µM
GI50 (A498 renal): 6.8 µM
TGI (A498 renal): 31.8 µM
GI50 (A549 NSCLC): 8.92 µM
TGI (A549 NSCLC): 37.9 µM
GI50 (ACHN renal): 2.25 µM
TGI (ACHN renal): 14.7 µM
GI50 (BT-549 breast): 6.38 µM
TGI (BT-549 breast): 28.7 µM
GI50 (CAKI-1 renal): 3.07 µM
TGI (CAKI-1 renal): 16.3 µM
GI50 (CCRF-CEM leukemia): 1.27 µM
TGI (CCRF-CEM leukemia): 4.24 µM
GI50 (COLO 205 colon): 3.96 µM
TGI (COLO 205 colon): 17.8 µM
GI50 (DU-145 prostate): 1.34 µM
TGI (DU-145 prostate): 13.8 µM
GI50 (EKVX NSCLC): 5.64 µM
TGI (EKVX NSCLC): 22 µM
GI50 (HCC-2998 colon): 3.4 µM
TGI (HCC-2998 colon): 12.7 µM
GI50 (HCT-116 colon): 1.24 µM
TGI (HCT-116 colon): > 20.1 µM
GI50 (HCT-15 colon): 2.2 µM
TGI (HCT-15 colon): 15.7 µM
GI50 (HL-60(TB) leukemia): 1.37 µM
TGI (HL-60(TB) leukemia): 4.65 µM
GI50 (HOP-62 NSCLC): 3.83 µM
TGI (HOP-62 NSCLC): 27.9 µM
GI50 (HOP-92 NSCLC): 1.67 µM
TGI (HOP-92 NSCLC): 6.73 µM
GI50 (HS 578T breast): 2.15 µM
TGI (HS 578T breast): 7.86 µM
GI50 (HT29 colon): 5.28 µM
TGI (HT29 colon): > 40.7 µM
GI50 (IGROV1 ovarian): 1.81 µM
TGI (IGROV1 ovarian): 11 µM
GI50 (K-562 leukemia): 1.4 µM
TGI (K-562 leukemia): 16.2 µM
GI50 (KM12 colon): 3.72 µM
TGI (KM12 colon): 15.4 µM
GI50 (LOX IMVI melanoma): 2.54 µM
TGI (LOX IMVI melanoma): 12.1 µM
GI50 (M14 melanoma): 2.58 µM
TGI (M14 melanoma): 19.6 µM
GI50 (MALME-3M melanoma): 7.77 µM
TGI (MALME-3M melanoma): 36.1 µM
GI50 (MCF7 breast): 2.84 µM
TGI (MCF7 breast): > 35.9 µM
GI50 (MDA-MB-231 breast): 3.44 µM
TGI (MDA-MB-231 breast): 22 µM
GI50 (MDA-MB-435): 3.28 µM
TGI (MDA-MB-435): 16.3 µM
GI50 (MOLT-4 leukemia): 1.27 µM
TGI (MOLT-4 leukemia): 4.58 µM
GI50 (NCI-H226 lung): 7.08 µM
TGI (NCI-H226 lung): 25.1 µM
GI50 (NCI-H23 lung): 3.77 µM
TGI (NCI-H23 lung): 18.4 µM
GI50 (NCI-H460 lung): 1.82 µM
TGI (NCI-H460 lung): 11.6 µM
GI50 (NCI-H522 lung): 1.84 µM
TGI (NCI-H522 lung): 4.12 µM
GI50 (NCI/ADR-RES ovarian): 3.84 µM
TGI (NCI/ADR-RES ovarian): 39.7 µM
GI50 (OVCAR-3 ovarian): 3.21 µM
TGI (OVCAR-3 ovarian): 17.8 µM
GI50 (OVCAR-4 ovarian): 9.36 µM
TGI (OVCAR-4 ovarian): > 100 µM
GI50 (OVCAR-5 ovarian): 5.38 µM
TGI (OVCAR-5 ovarian): 25.1 µM
GI50 (OVCAR-8 ovarian): 3.17 µM
TGI (OVCAR-8 ovarian): 23 µM
GI50 (PC-3 prostate): 3 µM
TGI (PC-3 prostate): > 34.6 µM
GI50 (RPMI-8226 leukemia): 2.58 µM
TGI (RPMI-8226 leukemia): 29.3 µM
GI50 (RXF 393 renal): 3.05 µM
TGI (RXF 393 renal): 6.47 µM
GI50 (SF-268 CNS): 2.71 µM
TGI (SF-268 CNS): 20.1 µM
GI50 (SF-295 CNS): 5.17 µM
TGI (SF-295 CNS): 24.9 µM
GI50 (SF-539 CNS): 2.52 µM
TGI (SF-539 CNS): 15.1 µM
GI50 (SK-MEL-2 melanoma): 1.88 µM
TGI (SK-MEL-2 melanoma): 5.73 µM
GI50 (SK-MEL-28 melanoma): 2.87 µM
TGI (SK-MEL-28 melanoma): 13 µM
GI50 (SK-MEL-5 melanoma): 8.81 µM
TGI (SK-MEL-5 melanoma): > 37.6 µM
GI50 (SK-OV-3 ovarian): 12.8 µM
TGI (SK-OV-3 ovarian): > 86.9 µM
GI50 (SN12C renal): 5.91 µM
TGI (SN12C renal): 32 µM
GI50 (SNB-19 CNS): 11.2 µM
TGI (SNB-19 CNS): > 94.8 µM
GI50 (SNB-75 CNS): 3.13 µM
TGI (SNB-75 CNS): > 38.6 µM
GI50 (SR leukemia): 0.521 µM
TGI (SR leukemia): > 21.5 µM
GI50 (SW-620 colon): 2.72 µM
TGI (SW-620 colon): 14.5 µM
GI50 (T-47D breast): 5.59 µM
TGI (T-47D breast): > 55.5 µM
GI50 (TK-10 renal): 5.04 µM
TGI (TK-10 renal): 32.4 µM
GI50 (U251 CNS): 4.63 µM
TGI (U251 CNS): 33.2 µM
GI50 (UACC-257 melanoma): 3.1 µM
TGI (UACC-257 melanoma): 8.47 µM
GI50 (UACC-62 melanoma): 5.31 µM
TGI (UACC-62 melanoma): 21.1 µM
GI50 (UO-31 renal): 3.51 µM
TGI (UO-31 renal): 22.2 µM

CC(=O)OC(C)(C)C1O[C@@]23OC1C[C@@H](C)[C@@H]2[C@@]1(C)CC[C@@]24C[C@@]25CC[C@H](OC2OCC(O)C(O)C2O)C(C)(C)[C@@H]5CCC4[C@]1(C)[C@H]3O (some centres undefined)
TGI (786-0 renal): 18.9 µM
TGI (A498 renal): 18.2 µM
TGI (A549 NSCLC): 21.4 µM
TGI (ACHN renal): 17 µM
TGI (BT-549 breast): 40.6 µM
TGI (CAKI-1 renal): 20.4 µM
TGI (CCRF-CEM leukemia): > 38.3 µM
TGI (COLO 205 colon): 25.1 µM
TGI (DU-145 prostate): 15.4 µM
TGI (EKVX NSCLC): 18.8 µM
TGI (HCC-2998 colon): 25.7 µM
TGI (HCT-116 colon): 19.1 µM
TGI (HCT-15 colon): 10.8 µM
TGI (HL-60(TB) leukemia): 5.48 µM
TGI (HOP-62 NSCLC): 37.7 µM
TGI (HOP-92 NSCLC): 31.6 µM
TGI (HS 578T breast): 45.6 µM
TGI (HT29 colon): 24.7 µM
TGI (IGROV1 ovarian): 29.1 µM
TGI (K-562 leukemia): > 93.2 µM
TGI (KM12 colon): 13.8 µM
TGI (LOX IMVI melanoma): 31.4 µM
TGI (M14 melanoma): 24.2 µM
TGI (MALME-3M melanoma): 42.1 µM
TGI (MCF7 breast): 11.9 µM
TGI (MDA-MB-231 breast): 14.8 µM
TGI (MDA-MB-435): 32.3 µM
TGI (MOLT-4 leukemia): 21.5 µM
TGI (NCI-H226 lung): 19.5 µM
TGI (NCI-H23 lung): 15.7 µM
TGI (NCI-H460 lung): 32.2 µM
TGI (NCI-H522 lung): 25.3 µM
TGI (NCI/ADR-RES ovarian): 27.8 µM
TGI (OVCAR-3 ovarian): 13.4 µM
TGI (OVCAR-4 ovarian): 23.8 µM
TGI (OVCAR-5 ovarian): 31.8 µM
TGI (OVCAR-8 ovarian): 64.8 µM
TGI (PC-3 prostate): 17.1 µM
TGI (RPMI-8226 leukemia): 29.1 µM
TGI (RXF 393 renal): 30.3 µM
TGI (SF-268 CNS): 41.3 µM
TGI (SF-295 CNS): 24.7 µM
TGI (SF-539 CNS): 12 µM
TGI (SK-MEL-2 melanoma): 39 µM
TGI (SK-MEL-28 melanoma): 29.8 µM
TGI (SK-MEL-5 melanoma): 23.3 µM
TGI (SK-OV-3 ovarian): 28.6 µM
TGI (SN12C renal): 10.7 µM
TGI (SNB-19 CNS): 18.6 µM
TGI (SNB-75 CNS): 46.5 µM
TGI (SR leukemia): 15.2 µM
TGI (SW-620 colon): > 100 µM
TGI (T-47D breast): 79.4 µM
TGI (TK-10 renal): 24.5 µM
TGI (U251 CNS): 22.1 µM
TGI (UACC-257 melanoma): 32.9 µM
TGI (UACC-62 melanoma): 27.7 µM
TGI (UO-31 renal): 29.7 µM
